Data taken from ChEMBL document CHEMBL1134516, “Probing the interaction of dengue virus envelope protein with heparin: assessment of glycosaminoglycan-derived inhibitors” (J Med Chem, 2001).

Test system: Dengue virus
Test: Dissociation constant for Dengue virus envelope protein binding by surface plasmon resonance
Format: functional

## Cc1ccc(C(=O)Nc2ccc(S(=O)(=O)O)c3cc(S(=O)(=O)O)cc(S(=O)(=O)O)c23)cc1NC(=O)c1cccc(NC(=O)Nc2cccc(C(=O)Nc3cc(C(=O)Nc4ccc(S(=O)(=O)O)c5cc(S(=O)(=O)O)cc(S(=O)(=O)O)c45)ccc3C)c2)c1 [SURAMIN]
  Kd: 40 nM
